{"source": "patent US20170368082A1", "about": "“FORMULATIONS OF BRINCIDOFOVIR” (priority 2016, published 2017)", "assay": "Phase 2 toxicokinetics of brincidofovir and cidofovir in plasma", "type": "in vivo, Sprague-Dawley CD rats", "parameters": "Imputed Concentration, Mean: unit: ng/mL", "conditions": "plasma; for C (Concentration), individual animals: 15 mg/kg; for Imputed Concentration, individual animals / Imputed Concentration, Mean: BLQ imputed as zero", "method": "Plasma samples (108) were collected 2 hours following the initiation of dosing on Day 1 and Day 7 (Group 1), or at 1, 2, 8, and 24 hours following the initiation of dosing on Day 1, and prior to administration and at 2, 8, and 24 hours following the initiation of dosing on Day 7 (Groups 2 and 3), and analyzed to determine the concentrations of brincidofovir and the metabolite, cidofovir), by LC/MS/MS.\nApproximately 0.4 mL of whole blood was obtained via the tail vein from each animal at each time point. Animals were not fasted prior to blood collection. Blood was collected into tubes containing K2EDTA anticoagulant and placed on wet ice in an upright position, per facility SOP prior to processing. Plasma was separated by centrifugation (10 minutes at approximately 2000 g, at approximately 2-8° C.). Approximately 0.10 mL of plasma was transferred into a single cryotube appropriately labeled with study number, animal number, time point, date of sampling and sample type. Remaining plasma was transferred into a second cryotube and retained as a backup sample. Plasma frozen at approximately −80±10° C. within approximately 2 hours after collection of each blood sample until analysis. Animals were euthanized (CO2 inhalation) after the final blood collection.\nIn general, TK parameters were estimated using mean plasma concentrations of brincidofovir and cidofovir derived from the composite blood sampling design using Phoenix WinNonLin (V 6.3).\nA composite blood sampling design was used such that each rat was sampled twice per sampling day. Blood was collected via tail vein from unanesthetized animals into tubes containing anticoagulant and placed on wet ice in an upright position. Animals were not fasted prior to blood collection. Plasma was separated by centrifugation (for 10 minutes at approximately 2000 g, at approximately 2-8° C.), and transferred into individually labeled cryotubes. All cryotubes containing the collected plasma samples were appropriately labeled as to study number, animal number, time point, date of sampling and sample type. All plasma samples were obtained and frozen at approximately −80° C. (±10° C.) within approximately 2 hours after collection of each blood sample until analysis.\nRat plasma bioanalysis was conducted by Pyxant Laboratories. Plasma samples were analyzed for concentrations of brincidofovir and cidofovir using a method based upon protein precipitation extraction followed by LC-MS/MS analysis; calibration ranges for brincidofovir and cidofovir were 1.00-1500 ng/mL and 5.00-750 ng/mL, respectively, (Pyxant study number 3025) for a 50 μL aliquot of rat plasma. Sample analysis for ISR was not performed as part of this non-GLP study.\nFor the generation of Mean Profiles, all sample concentrations that were below the limit of quantitation (BLQ) were set to 0.\nAll pharmacokinetic parameter estimates were completed using a Non-Compartmental Model (Model 200-202 for IV infusion administration). The AUClast and AUCinf were calculated using the linear up log down trapezoidal rule.", "key": {"[1]": {"conditions": "brincidofovir 1 mg/kg 2-h IV infusion, female rats, Day 7, 0 h"}, "[2]": {"conditions": "brincidofovir 1 mg/kg 2-h IV infusion, female rats, Day 7, 24 h"}, "[3]": {"conditions": "brincidofovir 1 mg/kg 2-h IV infusion, male rats, Day 7, 8 h"}, "[4]": {"conditions": "brincidofovir 1 mg/kg 2-h IV infusion, male rats, Day 7, 24 h"}, "[5]": {"conditions": "brincidofovir 15 mg/kg 2-h IV infusion, female rats, Day 7, 0 h"}, "[6]": {"conditions": "brincidofovir 15 mg/kg 2-h IV infusion, male rats, Day 7, 0 h"}}, "note": "“And” between values parts separate entries of the source, which are not always exact repeats. Equal values may be shown once.", "data": [{"smiles": "CCCCCCCCCCCCCCCCOCCCOP(=O)(O)CO[C@H](CO)Cn1ccc(N)nc1=O", "note": "[Brincidofovir]", "values": [{"measurement": "C (Concentration), individual animals", "setting": "female rats, Day 7, 24 h, listed as BCV", "result": "BLQ"}, {"measurement": "C (Concentration), individual animals", "setting": "male rats, Day 7, 0 h", "result": "BLQ"}, {"measurement": "Imputed Concentration, individual animals", "setting": "brincidofovir 1 mg/kg 2-h IV infusion, female rats, Day 1, 1 h, listed as BCV", "result": "126 ng/mL and 177 ng/mL"}, {"measurement": "Imputed Concentration, individual animals", "setting": "brincidofovir 1 mg/kg 2-h IV infusion, female rats, Day 1, 2 h, listed as BCV", "result": "164 ng/mL and 155 ng/mL"}, {"measurement": "Imputed Concentration, individual animals", "setting": "brincidofovir 1 mg/kg 2-h IV infusion, female rats, Day 1, 8 h, listed as BCV", "result": "2.30 ng/mL and 1.45 ng/mL and 0.00 ng/mL"}, {"measurement": "Imputed Concentration, individual animals", "setting": "brincidofovir 1 mg/kg 2-h IV infusion, female rats, Day 1, 24 h", "result": 0.00, "unit": "ng/mL"}, {"measurement": "Imputed Concentration, Mean", "setting": "[1]", "result": 0.00, "unit": "ng/mL"}, {"measurement": "Imputed Concentration, individual animals", "setting": "[1]", "result": 0.00, "unit": "ng/mL"}, {"measurement": "Imputed Concentration, Mean", "setting": "brincidofovir 1 mg/kg 2-h IV infusion, female rats, Day 7, 2 h", "result": 95.4, "unit": "ng/mL"}, {"measurement": "Imputed Concentration, individual animals", "setting": "brincidofovir 1 mg/kg 2-h IV infusion, female rats, Day 7, 2 h, listed as BCV", "result": "115 ng/mL and 82.1 ng/mL and 89.2 ng/mL"}, {"measurement": "Imputed Concentration, Mean", "setting": "brincidofovir 1 mg/kg 2-h IV infusion, female rats, Day 7, 8 h", "result": 2.19, "unit": "ng/mL"}, {"measurement": "Imputed Concentration, individual animals", "setting": "brincidofovir 1 mg/kg 2-h IV infusion, female rats, Day 7, 8 h, listed as BCV", "result": "6.58 ng/mL and 0.00 ng/mL (2×)"}, {"measurement": "Imputed Concentration, Mean", "setting": "[2]", "result": 0.00, "unit": "ng/mL"}, {"measurement": "Imputed Concentration, individual animals", "setting": "[2]", "result": 0.00, "unit": "ng/mL"}, {"measurement": "Imputed Concentration, individual animals", "setting": "brincidofovir 1 mg/kg 2-h IV infusion, male rats, Day 1, 1 h, listed as BCV", "result": "244 ng/mL and 280 ng/mL"}, {"measurement": "Imputed Concentration, individual animals", "setting": "brincidofovir 1 mg/kg 2-h IV infusion, male rats, Day 1, 2 h, listed as BCV", "result": "283 ng/mL and 203 ng/mL"}, {"measurement": "Imputed Concentration, individual animals", "setting": "brincidofovir 1 mg/kg 2-h IV infusion, male rats, Day 1, 8 h", "result": 0.00, "unit": "ng/mL"}, {"measurement": "Imputed Concentration, individual animals", "setting": "brincidofovir 1 mg/kg 2-h IV infusion, male rats, Day 1, 24 h", "result": 0.00, "unit": "ng/mL"}, {"measurement": "Imputed Concentration, individual animals", "setting": "brincidofovir 1 mg/kg 2-h IV infusion, male rats, Day 7, 0 h", "result": 0.00, "unit": "ng/mL"}, {"measurement": "Imputed Concentration, Mean", "setting": "brincidofovir 1 mg/kg 2-h IV infusion, male rats, Day 7, 2 h", "result": 208, "unit": "ng/mL"}, {"measurement": "Imputed Concentration, individual animals", "setting": "brincidofovir 1 mg/kg 2-h IV infusion, male rats, Day 7, 2 h, listed as BCV", "result": "255 ng/mL and 189 ng/mL and 179 ng/mL"}, {"measurement": "Imputed Concentration, Mean", "setting": "[3]", "result": 0.00, "unit": "ng/mL"}, {"measurement": "Imputed Concentration, individual animals", "setting": "[3]", "result": 0.00, "unit": "ng/mL"}, {"measurement": "Imputed Concentration, Mean", "setting": "[4]", "result": 0.00, "unit": "ng/mL"}, {"measurement": "Imputed Concentration, individual animals", "setting": "[4]", "result": 0.00, "unit": "ng/mL"}, {"measurement": "Imputed Concentration, Mean", "setting": "brincidofovir 15 mg/kg 2-h IV infusion, female rats, Day 1, 1 h", "result": 3470}, {"measurement": "Imputed Concentration, individual animals", "setting": "brincidofovir 15 mg/kg 2-h IV infusion, female rats, Day 1, 1 h, listed as BCV", "result": "3030 and 3930 and 3450"}, {"measurement": "Imputed Concentration, Mean", "setting": "brincidofovir 15 mg/kg 2-h IV infusion, female rats, Day 1, 2 h", "result": 2570}, {"measurement": "Imputed Concentration, individual animals", "setting": "brincidofovir 15 mg/kg 2-h IV infusion, female rats, Day 1, 2 h, listed as BCV", "result": "2460 and 1860 and 3380"}, {"measurement": "Imputed Concentration, Mean", "setting": "brincidofovir 15 mg/kg 2-h IV infusion, female rats, Day 1, 8 h", "result": 6.53}, {"measurement": "Imputed Concentration, individual animals", "setting": "brincidofovir 15 mg/kg 2-h IV infusion, female rats, Day 1, 8 h, listed as BCV", "result": "5.05 and 7.97 and 6.57"}, {"measurement": "Imputed Concentration, Mean", "setting": "brincidofovir 15 mg/kg 2-h IV infusion, female rats, Day 1, 24 h", "result": 2.02}, {"measurement": "Imputed Concentration, individual animals", "setting": "brincidofovir 15 mg/kg 2-h IV infusion, female rats, Day 1, 24 h, listed as BCV", "result": "2.32 and 1.25 and 2.48"}, {"measurement": "Imputed Concentration, Mean", "setting": "[5]", "result": 0.00}, {"measurement": "Imputed Concentration, individual animals", "setting": "[5]", "result": 0.00}, {"measurement": "Imputed Concentration, Mean", "setting": "brincidofovir 15 mg/kg 2-h IV infusion, female rats, Day 7, 2 h", "result": 1660}, {"measurement": "Imputed Concentration, individual animals", "setting": "brincidofovir 15 mg/kg 2-h IV infusion, female rats, Day 7, 2 h, listed as BCV", "result": "2220 and 995 and 1750"}, {"measurement": "Imputed Concentration, individual animals", "setting": "brincidofovir 15 mg/kg 2-h IV infusion, female rats, Day 7, 8 h, listed as BCV", "result": "5.32 and 6.27 and 4.75"}, {"measurement": "Imputed Concentration, Mean", "setting": "brincidofovir 15 mg/kg 2-h IV infusion, male rats, Day 1, 1 h", "result": 4370}, {"measurement": "Imputed Concentration, individual animals", "setting": "brincidofovir 15 mg/kg 2-h IV infusion, male rats, Day 1, 1 h, listed as BCV", "result": "4020 and 4030 and 5060"}, {"measurement": "Imputed Concentration, Mean", "setting": "brincidofovir 15 mg/kg 2-h IV infusion, male rats, Day 1, 2 h", "result": 2840}, {"measurement": "Imputed Concentration, individual animals", "setting": "brincidofovir 15 mg/kg 2-h IV infusion, male rats, Day 1, 2 h, listed as BCV", "result": "2510 and 2990 and 3010"}, {"measurement": "Imputed Concentration, Mean", "setting": "brincidofovir 15 mg/kg 2-h IV infusion, male rats, Day 1, 8 h", "result": 9.59}, {"measurement": "Imputed Concentration, individual animals", "setting": "brincidofovir 15 mg/kg 2-h IV infusion, male rats, Day 1, 8 h, listed as BCV", "result": "10.7 and 8.23 and 9.85"}, {"measurement": "Imputed Concentration, Mean", "setting": "brincidofovir 15 mg/kg 2-h IV infusion, male rats, Day 1, 24 h", "result": 1.22}, {"measurement": "Imputed Concentration, individual animals", "setting": "brincidofovir 15 mg/kg 2-h IV infusion, male rats, Day 1, 24 h, listed as BCV", "result": "1.20 and 1.10 and 1.36"}, {"measurement": "Imputed Concentration, Mean", "setting": "[6]", "result": 0.00}, {"measurement": "Imputed Concentration, individual animals", "setting": "[6]", "result": 0.00}, {"measurement": "Imputed Concentration, Mean", "setting": "brincidofovir 15 mg/kg 2-h IV infusion, male rats, Day 7, 2 h", "result": 1910}, {"measurement": "Imputed Concentration, individual animals", "setting": "brincidofovir 15 mg/kg 2-h IV infusion, male rats, Day 7, 2 h, listed as BCV", "result": "1640 and 1940 and 2150"}, {"measurement": "Imputed Concentration, individual animals", "setting": "brincidofovir 15 mg/kg 2-h IV infusion, male rats, Day 7, 8 h, listed as BCV", "result": "9.82 and 7.60 and 8.73"}]}]}
